The text below walks through data of ChEMBL document CHEMBL4732221, “Design, synthesis and bioactivity evaluation of novel pyrazole linked phenylthiazole derivatives in context of antibacterial activity” (Bioorg Med Chem Lett, 2021).

Holding throughout (assay type): functional
The subject of assay [1] is Escherichia coli. The assay is described as follows: Antibacterial activity against Escherichia coli ATCC 25922 assessed as growth inhibition after 18 hrs by monochromator plate assay.
Assay [2] deals with Candida albicans. The assay is described as follows: Antifungal activity against Candida albicans ATCC 90028 assessed as growth inhibition at 32 ug/ml after 36 hrs by monochromator plate assay relative to control. To be noted: for inhibition: dose 32.0 µg/ml.
Assay [3] relates to Pseudomonas aeruginosa. Put plainly: Antibacterial activity against Pseudomonas aeruginosa ATCC 27853 assessed as growth inhibition at 32 ug/ml after 18 hrs by monochromator plate assay relative to control. Conditions: for inhibition: dose 32.0 µg/ml.
For assay [4], the system named is Cryptococcus neoformans. The assay is described as follows: Antifungal activity against Cryptococcus neoformans var. grubii ATCC 208821 assessed as growth inhibition at 32 ug/ml after 36 hrs by monochromator plate assay relative to control. To be noted: dose 32.0 µg/ml.
The test system of assay [5] is Escherichia coli. Put plainly: Antibacterial activity against Escherichia coli ATCC 25922 assessed as growth inhibition at 32 ug/ml after 18 hrs by monochromator plate assay relative to control. Conditions: dose 32.0 µg/ml.
Assay [6] has as its system Klebsiella pneumoniae. The assay is described as follows: Antibacterial activity against Klebsiella pneumoniae ATCC 700603 assessed as growth inhibition after 18 hrs by monochromator plate assay.
For assay [7], the system named is Klebsiella pneumoniae. Put plainly: Antibacterial activity against Klebsiella pneumoniae ATCC 700603 assessed as growth inhibition at 32 ug/ml after 18 hrs by microplate reader assay relative to control. Conditions: for inhibition: dose 32.0 µg/ml.
The test system of assay [8] is Staphylococcus aureus. The assay is described as follows: Antibacterial activity against methicillin-resistant Staphylococcus aureus ATCC 43300 assessed as growth inhibition after 18 hrs by monochromator plate assay.
In assay [9] the test system is Acinetobacter baumannii. The assay is described as follows: Antibacterial activity against Acinetobacter baumannii ATCC 19606 assessed as growth inhibition after 18 hrs by monochromator plate assay.
For assay [10], the system named is Staphylococcus aureus. The assay is described as follows: Antibacterial activity against methicillin-resistant Staphylococcus aureus ATCC 43300 assessed as growth inhibition at 32 ug/ml after 18 hrs by monochromator plate assay relative to control.
Assay [11] deals with Pseudomonas aeruginosa. The assay is described as follows: Antibacterial activity against Pseudomonas aeruginosa ATCC 27853 assessed as growth inhibition after 18 hrs by monochromator plate assay.
For assay [12], the system named is Candida albicans. The assay is described as follows: Antifungal activity against Candida albicans ATCC 90028 assessed as growth inhibition after 36 hrs by monochromator plate assay.
Assay [13] has as its system Acinetobacter baumannii. The assay is described as follows: Antibacterial activity against Acinetobacter baumannii ATCC 19606 assessed as growth inhibition at 32 ug/ml after 18 hrs by monochromator plate assay relative to control. To be noted: for inhibition: dose 32.0 µg/ml.
Assay [14] has as its system Cryptococcus neoformans. Put plainly: Antifungal activity against Cryptococcus neoformans var. grubii ATCC 208821) assessed as growth inhibition after 36 hrs by monochromator plate assay relative to control.

Usually MIC stands for the smallest concentration in the dilution series that meets the test's criterion for growth inhibition. The term inhibition denotes the relative decrease from the control value, in per cent.

Activity calls are given as the source filed them.

For the compound `Cc1nc(-c2ccc(-c3ccccc3)cc2)sc1-c1cc(C(=O)NNc2ccccc2)n[nH]1`, the MIC result in the assay with Escherichia coli [1], in the assay with Klebsiella pneumoniae [6], with Pseudomonas aeruginosa [11] and in the assay on Cryptococcus neoformans [14] was “inactive” in each case. The results for the inhibition at 32 µg/mL in the assay on Candida albicans [2], with Staphylococcus aureus [10] and in the assay on Acinetobacter baumannii [13] were 17.8%, 8.2% and 5.5%, respectively. For the same compound, the inhibition entry with Pseudomonas aeruginosa [3], with Cryptococcus neoformans [4], with Escherichia coli [5] and in the assay on Klebsiella pneumoniae [7] was “inactive” throughout. In addition, the MIC with Staphylococcus aureus [8], with Acinetobacter baumannii [9] and with Candida albicans [12] was more than 32 µg/mL in each case.

In the case of `Cc1nc(-c2ccc(-c3ccccc3)cc2)sc1-c1cc(C(=O)Nc2ccc(OC(F)F)cc2)n[nH]1`, the MIC result in the assay with Escherichia coli [1], with Acinetobacter baumannii [9] and in the assay with Cryptococcus neoformans [14] was “inactive” throughout. For the same compound, the inhibition at 32 µg/mL worked out at 4.7% with Candida albicans [2], 7.1% in the assay with Pseudomonas aeruginosa [3], 5% with Klebsiella pneumoniae [7] and 3.6% in the assay on Staphylococcus aureus [10]. The inhibition entry in the assay on Cryptococcus neoformans [4], with Escherichia coli [5] and in the assay with Acinetobacter baumannii [13] was “inactive” in each case. Moreover, the MIC in the assay on Klebsiella pneumoniae [6], in the assay on Staphylococcus aureus [8], in the assay on Pseudomonas aeruginosa [11] and in the assay on Candida albicans [12] was more than 32 µg/mL each time.

As to `CCOC(=O)c1cc(-c2sc(-c3ccc(I)cc3)nc2C)[nH]n1`, the MIC entry in the assay with Escherichia coli [1] and in the assay on Cryptococcus neoformans [14] was “inactive” throughout. For the same compound, the inhibition at 32 µg/mL in the assay on Candida albicans [2] turned out to be 7.8%; in the assay on Pseudomonas aeruginosa [3] it was 16.6%; in the assay with Klebsiella pneumoniae [7], 15.1%; in the assay with Staphylococcus aureus [10], 16.4%; in the assay on Acinetobacter baumannii [13] it was 6.6%. Further, the inhibition entry in the assay with Cryptococcus neoformans [4] and in the assay with Escherichia coli [5] was “inactive” throughout. Moreover, the MIC in the assay on Klebsiella pneumoniae [6], with Staphylococcus aureus [8], in the assay on Acinetobacter baumannii [9], in the assay on Pseudomonas aeruginosa [11] and in the assay with Candida albicans [12] was more than 32 µg/mL in each case.

Take `Cc1nc(-c2ccc(-c3ccccc3)cc2)sc1-c1cc(C(=O)NC2CCCCC2)n[nH]1`: the MIC entry with Escherichia coli [1], in the assay with Candida albicans [12] and in the assay with Cryptococcus neoformans [14] was “inactive” throughout. Also, the inhibition entry in the assay on Candida albicans [2], in the assay with Cryptococcus neoformans [4] and in the assay with Escherichia coli [5] was “inactive” throughout. Also, the inhibition at 32 µg/mL came to 6.6% in the assay with Pseudomonas aeruginosa [3], 6.9% in the assay on Klebsiella pneumoniae [7], 84.9% with Staphylococcus aureus [10] and 2.9% in the assay on Acinetobacter baumannii [13]. Besides, the minimum inhibitory concentration (MIC) in the assay with Klebsiella pneumoniae [6], with Staphylococcus aureus [8], in the assay with Acinetobacter baumannii [9] and with Pseudomonas aeruginosa [11] was more than 32 µg/mL throughout.

Turning to `CCCCc1ccc(NC(=O)c2cc(-c3sc(-c4ccc(-c5ccccc5)cc4)nc3C)[nH]n2)cc1`, the MIC entry with Escherichia coli [1] and in the assay on Cryptococcus neoformans [14] was “inactive” throughout. Also, the inhibition at 32 µg/mL with Candida albicans [2] stood at 13.5%; in the assay on Pseudomonas aeruginosa [3] it was 5.6%; in the assay with Klebsiella pneumoniae [7], 3.3%; in the assay on Staphylococcus aureus [10], 9.5%; in the assay with Acinetobacter baumannii [13] it was 4.1%. Besides, the inhibition entry in the assay on Cryptococcus neoformans [4] and with Escherichia coli [5] was “inactive” each time. In addition, the minimum inhibitory concentration (MIC) with Klebsiella pneumoniae [6], in the assay on Staphylococcus aureus [8], in the assay with Acinetobacter baumannii [9], with Pseudomonas aeruginosa [11] and with Candida albicans [12] was more than 32 µg/mL each time.

Regarding `Cc1nc(-c2ccc(-c3ccccc3)cc2)sc1-c1cc(C(=O)Nc2cccc3ccccc23)n[nH]1`, the MIC entry with Escherichia coli [1] and in the assay with Cryptococcus neoformans [14] was “inactive” each time. Also, the inhibition at 32 µg/mL stood at 5.1% in the assay with Candida albicans [2]; 8.2% in the assay with Pseudomonas aeruginosa [3]; 8.9% in the assay with Klebsiella pneumoniae [7]; 14.2% in the assay with Staphylococcus aureus [10]; 0.9% with Acinetobacter baumannii [13]. The inhibition result in the assay on Cryptococcus neoformans [4] and in the assay on Escherichia coli [5] was “inactive” each time. For the same compound, the MIC in the assay on Klebsiella pneumoniae [6], with Staphylococcus aureus [8], with Acinetobacter baumannii [9], in the assay on Pseudomonas aeruginosa [11] and in the assay on Candida albicans [12] was more than 32 µg/mL throughout.

Take `Cc1nc(-c2ccc(I)cc2)sc1-c1cc(C(=O)NN2CCOCC2)n[nH]1`: the MIC result in the assay with Escherichia coli [1] and in the assay with Cryptococcus neoformans [14] was “inactive” each time. The inhibition at 32 µg/mL was 3.5% with Candida albicans [2]; 10.1% in the assay on Pseudomonas aeruginosa [3]; 8.4% in the assay on Klebsiella pneumoniae [7]; 15.7% in the assay with Staphylococcus aureus [10]; 2.8% with Acinetobacter baumannii [13]. Moreover, the inhibition result in the assay on Cryptococcus neoformans [4] and with Escherichia coli [5] was “inactive” in each case. The MIC with Klebsiella pneumoniae [6], in the assay on Staphylococcus aureus [8], in the assay with Acinetobacter baumannii [9], in the assay on Pseudomonas aeruginosa [11] and with Candida albicans [12] was more than 32 µg/mL throughout.

As for `Cc1nc(-c2ccc(-c3ccccc3)cc2)sc1-c1cc(C(=O)Nc2ccc(C(F)(F)F)cc2)n[nH]1`, the MIC entry in the assay with Escherichia coli [1], with Acinetobacter baumannii [9] and with Cryptococcus neoformans [14] was “inactive” in each case. Moreover, the inhibition at 32 µg/mL in the assay with Candida albicans [2] was 4.3%; in the assay with Pseudomonas aeruginosa [3] it was 2.8%; in the assay on Klebsiella pneumoniae [7], 0.8%; in the assay with Staphylococcus aureus [10] it was 9.9%. For the same compound, the inhibition result with Cryptococcus neoformans [4], in the assay with Escherichia coli [5] and with Acinetobacter baumannii [13] was “inactive” each time. In addition, the MIC with Klebsiella pneumoniae [6], in the assay with Staphylococcus aureus [8], in the assay on Pseudomonas aeruginosa [11] and with Candida albicans [12] was more than 32 µg/mL in each case.

Consider `Cc1nc(-c2ccc(-c3ccccc3)cc2)sc1-c1cc(C(=O)NCC2CCCCC2)n[nH]1`, for which the MIC entry with Escherichia coli [1], in the assay on Klebsiella pneumoniae [6], in the assay on Acinetobacter baumannii [9], in the assay on Pseudomonas aeruginosa [11], in the assay on Candida albicans [12] and in the assay on Cryptococcus neoformans [14] was “inactive” in each case. Besides, the inhibition entry with Candida albicans [2], with Pseudomonas aeruginosa [3], with Cryptococcus neoformans [4], in the assay with Escherichia coli [5], with Klebsiella pneumoniae [7] and with Acinetobacter baumannii [13] was “inactive” each time. The MIC in the assay on Staphylococcus aureus [8] was more than 32 µg/mL. In addition, in the assay on Staphylococcus aureus [10], the inhibition at 32 µg/mL was 4.1%.

With `COC(=O)c1cc(-c2sc(-c3ccc(I)cc3)nc2C)[nH]n1`, the MIC entry in the assay with Escherichia coli [1], in the assay on Klebsiella pneumoniae [6] and with Cryptococcus neoformans [14] was “inactive” throughout. For the same compound, the inhibition at 32 µg/mL amounted to 5.1% with Candida albicans [2], 6.6% in the assay on Pseudomonas aeruginosa [3], 14.2% in the assay on Staphylococcus aureus [10] and 4.9% in the assay with Acinetobacter baumannii [13]. Besides, the inhibition result in the assay with Cryptococcus neoformans [4], in the assay with Escherichia coli [5] and in the assay on Klebsiella pneumoniae [7] was “inactive” in each case. Also, the MIC with Staphylococcus aureus [8], in the assay with Acinetobacter baumannii [9], in the assay with Pseudomonas aeruginosa [11] and in the assay with Candida albicans [12] was more than 32 µg/mL each time.

Consider `Cc1ccc(-c2ccc(-c3nc(C)c(-c4cc(C(=O)NC5CCCCC5)n[nH]4)s3)cc2)cc1`, for which the MIC entry in the assay with Escherichia coli [1] and in the assay on Cryptococcus neoformans [14] was “inactive” throughout. Also, the inhibition at 32 µg/mL in the assay on Candida albicans [2] worked out at 18.9%; in the assay with Pseudomonas aeruginosa [3], 16.5%; in the assay with Klebsiella pneumoniae [7] it was 12.2%; with Staphylococcus aureus [10], 23.8%; in the assay with Acinetobacter baumannii [13], 4.3%. For the same compound, the inhibition entry in the assay with Cryptococcus neoformans [4] and in the assay with Escherichia coli [5] was “inactive” throughout. In addition, the MIC in the assay with Klebsiella pneumoniae [6], with Staphylococcus aureus [8], in the assay on Acinetobacter baumannii [9], in the assay on Pseudomonas aeruginosa [11] and in the assay on Candida albicans [12] was more than 32 µg/mL throughout.

Consider `Cc1nc(-c2ccc(-c3ccccc3)cc2)sc1-c1cc(C(=O)Nc2ccc(C(C)(C)C)cc2)n[nH]1`, for which the MIC entry in the assay on Escherichia coli [1] and with Cryptococcus neoformans [14] was “inactive” each time. Also, the inhibition at 32 µg/mL was 5.2% in the assay on Candida albicans [2]; 2.2% with Pseudomonas aeruginosa [3]; 5.2% in the assay on Klebsiella pneumoniae [7]; 13.2% in the assay with Staphylococcus aureus [10]; 3% in the assay with Acinetobacter baumannii [13]. Besides, the inhibition entry in the assay with Cryptococcus neoformans [4] and in the assay with Escherichia coli [5] was “inactive” in each case. Also, the MIC with Klebsiella pneumoniae [6], in the assay with Staphylococcus aureus [8], in the assay with Acinetobacter baumannii [9], in the assay on Pseudomonas aeruginosa [11] and with Candida albicans [12] was more than 32 µg/mL throughout.

`Cc1ccc(NC(=O)c2cc(-c3sc(-c4ccc(-c5ccccc5)cc4)nc3C)[nH]n2)cc1C`: the MIC result with Escherichia coli [1], with Acinetobacter baumannii [9] and with Cryptococcus neoformans [14] was “inactive” throughout. In addition, the inhibition at 32 µg/mL in the assay on Candida albicans [2] was 10.1%; in the assay with Pseudomonas aeruginosa [3], 2.2%; with Klebsiella pneumoniae [7], 3.5%; with Staphylococcus aureus [10], 10.8%. The inhibition entry with Cryptococcus neoformans [4], in the assay with Escherichia coli [5] and in the assay with Acinetobacter baumannii [13] was “inactive” throughout. Moreover, the minimum inhibitory concentration (MIC) in the assay on Klebsiella pneumoniae [6], in the assay with Staphylococcus aureus [8], with Pseudomonas aeruginosa [11] and in the assay on Candida albicans [12] was more than 32 µg/mL in each case.
